In PubChem BioAssay (NCI):
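A five-concentration, 48-hour dose response in 96-well plates underlies each endpoint, interpolated linearly between surrounding concentrations. GI50 = concentration required for 50% inhibition of growth. TGI: concentration producing complete growth inhibition.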

Assays:
Assay in all cases: NCI tumour cell line growth inhibition, 48 h
[1] = system: CAKI-1 renal
[2] = system: MOLT-4 leukemia
[3] = system: PC-3 prostate
[4] = system: TK-10 renal
[5] = system: HT29 colon
[6] = system: SW-620 colon
[7] = system: M14 melanoma
[8] = system: DU-145 prostate
[9] = system: SN12C renal
[10] = system: UACC-257 melanoma
[11] = system: IGROV1 ovarian
[12] = system: OVCAR-4 ovarian
[13] = system: SK-MEL-5 melanoma
[14] = system: CCRF-CEM leukemia
[15] = system: SF-268 CNS
[16] = system: A549 NSCLC
[17] = system: 786-0 renal
[18] = system: EKVX NSCLC
[19] = system: HOP-92 NSCLC
[20] = system: MDA-MB-231 breast
[21] = system: OVCAR-5 ovarian
[22] = system: HL-60(TB) leukemia
[23] = system: SF-295 CNS
[24] = system: SNB-19 CNS
[25] = system: ACHN renal
[26] = system: HS 578T breast
[27] = system: NCI-H23 lung
[28] = system: OVCAR-8 ovarian
[29] = system: HCT-15 colon
[30] = system: SK-MEL-2 melanoma
[31] = system: SNB-75 CNS
[32] = system: UO-31 renal
[33] = system: HOP-62 NSCLC
[34] = system: K-562 leukemia
[35] = system: SK-OV-3 ovarian
[36] = system: U251 CNS
[37] = system: NCI-H522 lung
[38] = system: HCC-2998 colon
[39] = system: SR leukemia
[40] = system: COLO 205 colon
[41] = system: MDA-MB-435
[42] = system: RPMI-8226 leukemia
[43] = system: HCT-116 colon
[44] = system: T-47D breast
[45] = system: NCI-H460 lung
[46] = system: NCI/ADR-RES ovarian
[47] = system: LOX IMVI melanoma
[48] = system: MDA-N
[49] = system: SF-539 CNS
[50] = system: UACC-62 melanoma
[51] = system: A498 renal
[52] = system: MALME-3M melanoma
[53] = system: SK-MEL-28 melanoma
[54] = system: MCF7 breast
[55] = system: OVCAR-3 ovarian
[56] = system: KM12 colon
[57] = system: NCI-H226 lung
[58] = system: RXF 393 renal

CO[C@]12CC(=O)C3(C(C[C@H]4CC5CCC6=CC(=O)CC[C@]6(OC(C)=O)C5C[C@@]43C)C1)C1C[C@H]3[C@@H]4CCC5=CC(=O)CC[C@]5(OC(C)=O)[C@H]4CC[C@]3(C)C12 (stereo not given in full)
TGI [1]: > 100 µM
TGI [2]: > 100 µM
TGI [3]: > 100 µM
TGI [4]: > 100 µM
TGI [5]: > 100 µM
TGI [6]: > 100 µM
TGI [7]: > 100 µM
TGI [8]: > 100 µM
TGI [9]: > 100 µM
TGI [10]: > 100 µM
TGI [11]: > 100 µM
TGI [12]: > 100 µM
TGI [13]: > 100 µM
TGI [14]: > 100 µM
TGI [15]: > 100 µM
TGI [16]: > 100 µM
TGI [17]: > 100 µM
TGI [18]: > 100 µM
TGI [19]: > 100 µM
TGI [20]: 74.7 µM
TGI [21]: > 100 µM
TGI [22]: > 100 µM
TGI [23]: > 100 µM
TGI [24]: > 100 µM
TGI [25]: > 100 µM
TGI [26]: > 100 µM
TGI [27]: > 100 µM
TGI [28]: > 100 µM
TGI [29]: > 100 µM
TGI [30]: > 100 µM
TGI [31]: > 100 µM
TGI [32]: > 100 µM
TGI [33]: > 100 µM
TGI [34]: > 100 µM
TGI [35]: > 100 µM
TGI [36]: > 100 µM
TGI [37]: > 100 µM
TGI [38]: > 100 µM
TGI [39]: > 100 µM
TGI [40]: 56.7 µM
TGI [41]: > 100 µM
TGI [42]: > 100 µM
TGI [43]: > 100 µM
TGI [44]: > 100 µM
TGI [45]: > 100 µM
TGI [46]: > 100 µM
TGI [47]: > 100 µM
TGI [48]: > 100 µM
TGI [49]: > 100 µM
TGI [50]: > 100 µM
TGI [51]: > 100 µM
TGI [52]: > 100 µM
TGI [53]: > 100 µM
TGI [54]: > 100 µM
TGI [55]: > 100 µM

CNc1cc(N)ccc1C(=O)N1CCC[C@H]1CO
TGI [2]: > 100 µM
TGI [3]: > 100 µM
TGI [4]: > 100 µM
TGI [5]: > 100 µM
TGI [6]: > 100 µM
TGI [7]: > 100 µM
TGI [8]: > 100 µM
TGI [9]: > 100 µM
TGI [10]: > 100 µM
TGI [11]: > 100 µM
TGI [56]: > 100 µM
TGI [15]: > 100 µM
TGI [16]: > 100 µM
TGI [17]: > 100 µM
TGI [18]: > 100 µM
TGI [19]: > 100 µM
TGI [20]: > 100 µM
TGI [21]: > 100 µM
TGI [23]: > 100 µM
TGI [24]: > 100 µM
TGI [25]: > 100 µM
TGI [26]: > 100 µM
TGI [28]: > 100 µM
TGI [29]: > 100 µM
TGI [30]: > 100 µM
TGI [31]: > 100 µM
TGI [32]: > 100 µM
TGI [33]: > 100 µM
TGI [34]: > 100 µM
TGI [35]: > 100 µM
TGI [36]: > 100 µM
TGI [37]: > 100 µM
TGI [39]: > 100 µM
TGI [57]: > 100 µM
TGI [41]: > 100 µM
TGI [42]: > 100 µM
TGI [43]: > 100 µM
TGI [44]: > 100 µM
TGI [45]: > 100 µM
TGI [46]: > 100 µM
TGI [47]: > 100 µM
TGI [48]: > 100 µM
TGI [49]: > 100 µM
TGI [50]: > 100 µM
TGI [51]: > 100 µM
TGI [53]: > 100 µM
TGI [54]: > 100 µM
TGI [55]: > 100 µM

O=CCOCc1cc2c(cc1Br)OCO2
TGI [1]: 42.7 µM
TGI [2]: > 100 µM
TGI [3]: 59.6 µM
TGI [4]: > 100 µM
TGI [5]: 38.6 µM
TGI [6]: 50.3 µM
TGI [7]: 46.7 µM
TGI [8]: > 100 µM
TGI [9]: > 100 µM
TGI [10]: > 100 µM
TGI [11]: > 100 µM
TGI [12]: 45.8 µM
TGI [13]: 36.1 µM
TGI [56]: > 100 µM
TGI [14]: 47.7 µM
TGI [15]: 47.8 µM
TGI [16]: > 100 µM
TGI [17]: 36.7 µM
TGI [18]: > 100 µM
TGI [19]: > 100 µM
TGI [20]: 44.4 µM
TGI [21]: > 100 µM
TGI [22]: 48.8 µM
TGI [23]: > 100 µM
TGI [25]: 55.1 µM
TGI [26]: 44.7 µM
TGI [27]: 28.7 µM
TGI [28]: 52.5 µM
TGI [29]: 46.1 µM
TGI [31]: > 100 µM
TGI [32]: 42.9 µM
TGI [33]: > 100 µM
TGI [34]: > 100 µM
TGI [35]: > 100 µM
TGI [36]: 90.5 µM
TGI [58]: > 100 µM
TGI [37]: 33.3 µM
TGI [38]: > 100 µM
TGI [39]: 68.1 µM
TGI [40]: > 100 µM
TGI [41]: > 100 µM
TGI [42]: > 100 µM
TGI [43]: 45 µM
TGI [44]: 61.6 µM
TGI [45]: > 100 µM
TGI [46]: 40.4 µM
TGI [47]: 47.1 µM
TGI [48]: > 100 µM
TGI [49]: 50.2 µM
TGI [50]: > 100 µM
TGI [51]: > 100 µM
TGI [53]: > 100 µM
TGI [54]: 42.9 µM
TGI [55]: 35.7 µM

CCCn1c2c(c3ccccc3c1=O)C(=O)c1cc3c(cc1-2)OCO3
GI50 [1]: 97.3 µM
TGI [1]: > 100 µM
GI50 [3]: 71.1 µM
TGI [3]: > 100 µM
GI50 [4]: 86.9 µM
TGI [4]: > 100 µM
GI50 [5]: > 100 µM
TGI [5]: > 100 µM
GI50 [6]: 83.2 µM
TGI [6]: > 100 µM
GI50 [7]: > 100 µM
TGI [7]: > 100 µM
GI50 [8]: > 100 µM
TGI [8]: > 100 µM
GI50 [9]: > 100 µM
TGI [9]: > 100 µM
GI50 [10]: > 100 µM
TGI [10]: > 100 µM
GI50 [11]: 44.4 µM
TGI [11]: > 100 µM
GI50 [12]: > 100 µM
TGI [12]: > 100 µM
GI50 [13]: > 100 µM
TGI [13]: > 100 µM
GI50 [56]: 31.5 µM
TGI [56]: > 100 µM
GI50 [14]: > 100 µM
TGI [14]: > 100 µM
GI50 [15]: > 100 µM
TGI [15]: > 100 µM
GI50 [16]: > 100 µM
TGI [16]: > 100 µM
GI50 [17]: 77.2 µM
TGI [17]: > 100 µM
GI50 [18]: 91.2 µM
TGI [18]: > 100 µM
GI50 [19]: 0.159 µM
TGI [19]: 0.458 µM
GI50 [20]: > 100 µM
TGI [20]: > 100 µM
GI50 [21]: > 100 µM
TGI [21]: > 100 µM
GI50 [22]: > 100 µM
TGI [22]: > 100 µM
GI50 [23]: 44.8 µM
TGI [23]: > 100 µM
GI50 [24]: > 100 µM
TGI [24]: > 100 µM
GI50 [25]: > 100 µM
TGI [25]: > 100 µM
GI50 [26]: > 100 µM
TGI [26]: > 100 µM
GI50 [27]: > 100 µM
TGI [27]: > 100 µM
GI50 [28]: > 100 µM
TGI [28]: > 100 µM
GI50 [29]: > 100 µM
TGI [29]: > 100 µM
GI50 [30]: > 100 µM
TGI [30]: > 100 µM
GI50 [31]: > 100 µM
TGI [31]: > 100 µM
GI50 [32]: > 100 µM
TGI [32]: > 100 µM
GI50 [33]: > 100 µM
TGI [33]: > 100 µM
GI50 [35]: > 100 µM
TGI [35]: > 100 µM
GI50 [36]: > 100 µM
TGI [36]: > 100 µM
GI50 [58]: > 100 µM
TGI [58]: > 100 µM
GI50 [37]: 60.1 µM
TGI [37]: > 100 µM
GI50 [38]: 16.9 µM
TGI [38]: 99.6 µM
GI50 [39]: 6.1 µM
TGI [39]: > 100 µM
GI50 [40]: > 100 µM
TGI [40]: > 100 µM
GI50 [41]: > 100 µM
TGI [41]: > 100 µM
GI50 [43]: 30.5 µM
TGI [43]: > 100 µM
GI50 [44]: > 100 µM
TGI [44]: > 100 µM
GI50 [45]: 26.8 µM
TGI [45]: > 100 µM
GI50 [46]: 76.9 µM
TGI [46]: > 100 µM
GI50 [47]: > 100 µM
TGI [47]: > 100 µM
GI50 [48]: > 100 µM
TGI [48]: > 100 µM
GI50 [49]: > 100 µM
TGI [49]: > 100 µM
GI50 [50]: > 100 µM
TGI [50]: > 100 µM
GI50 [51]: > 100 µM
TGI [51]: > 100 µM
GI50 [52]: > 100 µM
TGI [52]: > 100 µM
GI50 [53]: > 100 µM
TGI [53]: > 100 µM
GI50 [54]: 9.39 µM
TGI [54]: > 100 µM
GI50 [55]: 21 µM
TGI [55]: > 100 µM
